US20090143279A1 (priority 2007, published 2009)
Where a name gives a salt, the structure may show the parent alone. Read-outs that look alike come from different tables or passages of the source.

Assays:
reactive oxygen species = type: cell-based, mouse
[1] = test system: mitochondrial membrane potential; type: cell-based, mouse
nuOXPHOS transcripts = type: cell-based, mouse
mtOXPHOS transcripts = type: cell-based, mouse
cytochrome c = type: cell-based, mouse
OXPHOS gene expression = type: cell-based, mouse
[2] = test system: cellular dehydrogenase activity
[3] = composite Z-score vs DMSO wells, Conc 20 μM
[4] = 20 μM, composite Z-score vs DMSO
[5] = composite Z-score vs DMSO, Conc 20 μM
[6] = Table 4, C2C12 myotubes, 48 h, composite Z-score
[7] = Conc 20 μM, normalized score vs mock-treated (DMSO) wells

| SMILES | Viability (C2C12 myotubes; [4]) | ROS (reactive oxygen species; [4]) | ΔΨm [1, 4] | nucOX (nuOXPHOS transcripts; [4]) | mitoOX (mtOXPHOS transcripts; [4]) | cyt c (cytochrome c; [4]) | GE-HTS (OXPHOS gene expression; [4]) | MTT [2, 4] | Viability (C2C12 myotubes; [5]) | ROS (reactive oxygen species; [5]) | ΔΨm [1, 5] | nucOX (nuOXPHOS transcripts; [5]) | mitoOX (mtOXPHOS transcripts; [5]) | cyt c (cytochrome c; [5]) | GE-HTS (OXPHOS gene expression; [5]) | MTT [2, 5] | further results |
| --- | --- | --- | --- | --- | --- | --- | --- | --- | --- | --- | --- | --- | --- | --- | --- | --- | --- |
| CC[C@@]1(O)C[C@H](O[C@H]2C[C@H](N(C)C)[C@H](O)[C@H](C)O2)c2c(cc3c(c2O)C(=O)c2c(O)cccc2C3=O)[C@H]1C(=O)OC [aklavine] | – | – | – | – | – | – | – | – | – | – | – | – | – | – | – | – | Viability (C2C12 myotubes; [3]): −2.971; ROS (reactive oxygen species; [3]): −2.347; ΔΨm [1, 3]: −3.626; nucOX (nuOXPHOS transcripts; [3]): 0.430; mitoOX (mtOXPHOS transcripts; [3]): 1.063; cyt c (cytochrome c; [3]): −5.658; GE-HTS (OXPHOS gene expression; [3]): 0.706; MTT [2, 3]: −6.213 |
| NC(=O)c1ccc([N+](=O)[O-])cc1Cl [aklomide] | – | – | – | – | – | – | – | – | – | – | – | – | – | – | – | – | Viability (C2C12 myotubes; [3]): 0.408; ROS (reactive oxygen species; [3]): 0.061; ΔΨm [1, 3]: −0.447; nucOX (nuOXPHOS transcripts; [3]): 0.594; mitoOX (mtOXPHOS transcripts; [3]): −0.136; cyt c (cytochrome c; [3]): 0.510; GE-HTS (OXPHOS gene expression; [3]): 0.378; MTT [2, 3]: 1.426 |
| CCCCC(CC)CNC(=N)NC(=N)NCCCCCCNC(=N)NC(=N)NCC(CC)CCCC (centres unmarked) [alexidine] | −2.974 | −0.298 | −1.139 | −0.289 | −0.150 | −3.981 | −0.288 | −2.693 | – | – | – | – | – | – | – | – | Viability (C2C12 myotubes): −4.805; ROS (reactive oxygen species): −4.270; ΔΨm [1]: −3.726; nucOX (nuOXPHOS transcripts): −1.387; mitoOX (mtOXPHOS transcripts): −2.011; cyt c (cytochrome c): −3.201; GE-HTS (OXPHOS gene expression): −1.696; MTT [2]: −5.432 |
| C[C@H](CCC(=O)O)[C@H]1CC[C@H]2[C@@H]3CC[C@H]4C[C@H](O)CC[C@]4(C)[C@H]3C[C@H](O)[C@]12C [allodeoxycholic acid] | – | – | – | – | – | – | – | – | −1.161 | −0.164 | 0.404 | −0.903 | −0.773 | −2.903 | −0.905 | −2.126 | – |
| Oc1ncnc2[nH]ncc12 [allopurinol] | 0.376 | 1.448 | −0.204 | −0.849 | −0.798 | −0.105 | −0.869 | −1.611 | – | – | – | – | – | – | – | – | – |
| N#CC(=Cc1cccc(O)c1)C(=O)O [alpha-cyano-3-hydroxycinnamic acid] | −0.861 | 0.452 | −0.165 | −0.903 | −0.285 | 0.349 | −0.747 | −0.323 | – | – | – | – | – | – | – | – | – |
| CC(=O)Oc1c(C)c(C)c2c(c1C)CCC(C)(CCCC(C)CCCC(C)CCCC(C)C)O2 (stereo not drawn) [alpha-tochopheryl acetate] | −0.957 | 0.364 | −0.734 | 0.339 | −0.094 | 0.261 | 0.212 | −1.398 | – | – | – | – | – | – | – | – | – |
| COc1cc2c(cc1OC)[C@@H]1C(=O)c3c(O)cc4c(c3O[C@@H]1CO2)C=CC(C)(C)O4 [alpha-toxicarol, reference compound] | – | – | – | – | – | – | – | – | 0.304 | 0.101 | 0.820 | 0.124 | −0.345 | −2.637 | −0.046 | −1.982 | Viability (C2C12 myotubes; [6]): 0.304; ROS (reactive oxygen species; [6]): 0.101; ΔΨm ([1]; Table 4, C2C12 myotubes, 48 h, JC-1, composite Z-score): 0.820; MTT [2, 6]: −1.982 |
| COc1cc(OC)c2c(c1)OC(c1ccccc1)CC2=O (centres unmarked) [alpinetin methyl ether] | – | – | – | – | – | – | – | – | – | – | – | – | – | – | – | – | Viability (composite Z-score) (C2C12 myotubes; [7]): 0.220; ROS (composite Z-score) (reactive oxygen species; [7]): 0.827; ΔΨm (composite Z-score) [1, 7]: −0.286; nucOX (composite Z-score) (nuOXPHOS transcripts; [7]): −0.437; mitoOX (composite Z-score) (mtOXPHOS transcripts; [7]): −0.717; cyt c (composite Z-score) (cytochrome c; [7]): −0.145; GE-HTS (composite Z-score) (OXPHOS gene expression; [7]): −0.565; MTT (composite Z-score) [2, 7]: −0.694 |
| CN(C)c1nc(N(C)C)nc(N(C)C)n1 [altretamine] | −0.315 | 0.103 | −0.322 | 0.488 | 0.069 | −0.631 | 0.379 | −1.416 | – | – | – | – | – | – | – | – | Viability (C2C12 myotubes): −0.533; ROS (reactive oxygen species): 0.462; ΔΨm [1]: −0.440; nucOX (nuOXPHOS transcripts): 0.750; mitoOX (mtOXPHOS transcripts): 0.972; cyt c (cytochrome c): 0.040; GE-HTS (OXPHOS gene expression): 0.884; MTT [2]: −0.442 |
| CCN(CCCc1ccccc1)CCCc1ccccc1 [alverine citrate] | – | – | – | – | – | – | – | – | 0.885 | 1.116 | 0.433 | −0.098 | −0.442 | −0.433 | −0.238 | −0.018 | – |
| NCC[C@H](O)C(=O)N[C@@H]1C[C@H](N)[C@@H](O[C@H]2O[C@H](CN)[C@@H](O)[C@H](O)[C@H]2O)[C@H](O)[C@H]1O[C@H]1O[C@H](CO)[C@@H](O)[C@H](N)[C@H]1O [amikacin] | – | – | – | – | – | – | – | – | 0.034 | 0.301 | −0.116 | 0.268 | 0.338 | −0.090 | 0.332 | −1.688 | – |
